The values below come from PMC6600542 (Molecules, 2019).

Series [1] concerns the target human FXa (Homo sapiens, UniProt P00742). Nature of the series: FXa chromogenic substrate hydrolysis assay. The class given is biochemical. As to conditions: pH 7.4, 37 °C. The procedure: Direct inhibition of human FXa and α-thrombin of the common coagulation pathway and human plasmin of the fibrinolysis pathway were measured using the corresponding chromogenic substrate hydrolysis assays at 37 °C and pH 7.4, as reported earlier using the 96-microplate platform. […] After 10 min incubation, 5 µL Spectrozyme FXa (5 mM stock conc.) was rapidly added and the residual activity of FXa was measured from the initial rate of increase in absorbance at 405 nm. […] The concentration vs effect curve was constructed using logistic Equation (1) from which the potency (IC50) and efficacy (ΔY) of inhibition were also obtained.

The conditions of series [2]: cited from earlier work.
In series [3] the target is T1, guinea pig transglutaminase (UniProt P08587).
T1 sequence (P08587 1-690): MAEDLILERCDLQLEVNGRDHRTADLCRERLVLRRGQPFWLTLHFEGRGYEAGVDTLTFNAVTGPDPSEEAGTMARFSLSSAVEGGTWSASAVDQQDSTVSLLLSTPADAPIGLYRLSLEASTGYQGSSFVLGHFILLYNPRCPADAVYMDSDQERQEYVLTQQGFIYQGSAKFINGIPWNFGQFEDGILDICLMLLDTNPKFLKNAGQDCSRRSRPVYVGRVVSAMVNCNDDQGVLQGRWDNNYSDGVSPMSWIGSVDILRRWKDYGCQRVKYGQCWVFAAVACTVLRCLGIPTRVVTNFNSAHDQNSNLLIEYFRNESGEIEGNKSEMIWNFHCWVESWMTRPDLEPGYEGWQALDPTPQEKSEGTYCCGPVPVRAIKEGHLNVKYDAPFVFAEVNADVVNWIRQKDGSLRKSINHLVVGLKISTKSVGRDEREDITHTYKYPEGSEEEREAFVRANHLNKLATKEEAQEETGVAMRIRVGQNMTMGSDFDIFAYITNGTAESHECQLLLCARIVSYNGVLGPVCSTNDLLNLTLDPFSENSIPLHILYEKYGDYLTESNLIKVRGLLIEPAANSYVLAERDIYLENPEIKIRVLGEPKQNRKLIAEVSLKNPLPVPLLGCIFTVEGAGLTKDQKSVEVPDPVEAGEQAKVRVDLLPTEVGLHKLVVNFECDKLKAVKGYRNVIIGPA
Description: Guinea pig transglutaminase inhibition. The class given is biochemical. The settings on record: at concentrations as high as 500 µM.

Details of series [4]: method as in PMID 3491164, PMID 3680992, PMID 1984463. The settings on record: patients; read-out: means of plasma CMAX; cited from earlier work.
For series [5], the system named is normal human plasma. Nature of the series: PT clotting assay, normal human plasma. The class given is biochemical. As to conditions: for concentration to double the PT: normal human plasma (text). Here is the method:
For the PT assay, thromboplastin-D was reconstituted according to the manufacturer’s directions and warmed to 37 °C. […] After incubation for 4 min at 37 °C, clotting was initiated by adding 100 μL of prewarmed 25 mM CaCl2 and the time to clotting was noted. […] To determine the in vitro effect on the APTT of deficient human plasmas, the APTT assay was repeated, using human plasmas deficient of factor VII (FVII), factor IX (FIX), FXI, or factor XII (FXII). […] The positive control used in APTT and PT assays was rivaroxaban, a clinically used FXa inhibitor. Under the conditions reported, rivaroxaban doubled the APTT and PT at concentrations of 0.123 ± 0.003 µM and 0.193 ± 0.043 µM, respectively.

The target of series [6] is T2, FXIa (Homo sapiens, UniProt P03951).
T2 construct: purchased Haematologic Technologies, Inc; host or cells: plasma
Description: FXIa chromogenic substrate hydrolysis assay. The class given is biochemical. The procedure: Direct inhibition of the human coagulation transglutaminase FXIIIa was also studied using a fluorescence-based transglutamination assay as reported in the literature.
After 10 min incubation, 5 µL FXIa substrate (6.9 mM stock concentration) was rapidly added and the residual FXIa activity was measured from the initial rate of increase in absorbance at 405 nm. Assays were performed in similar fashion with trypsin and chymotrypsin. Stock concentrations used were 18.9 µg/mL (trypsin) and 22.7 mM (S-2222) for bovine trypsin assay (final volume was 200 µL) and 2 µg/mL (chymotrypsin) and 16.2 mM (N-Succinyl-Ala-Ala-Pro-Phe-p-nitroanilide) for bovine chymotrypsin assay (final volume was 200 µL). The buffer used for FXIa, trypsin, chymotrypsin assays was 50 mM Tris-HCl buffer, pH 7.4, containing 150 mM NaCl, 2.5 mM CaCl2, 0.1% PEG8000, and 0.02% Tween80. Neutrophil elastase inhibition assay was performed in a 96-well plate with a final volume of 100 µl with 0.125 M 4-(2-hydroxyethyl)-1-piperazineethanesulfonic acid (HEPES) buffer, pH 7.4 containing 0.125% Triton-X 100, as reported earlier. […] After incubation, 3 µL neutrophil elastase substrate (S-1384; 25 mM stock conc.) was rapidly added and the residual enzyme activity measured from the initial rate of increase in the absorbance at 405 nm.

Setting [7] is: parenteral administration, patients.

The structures appear in SMILES notation. Values joined by “and” are separate entries in the source; they are usually repeats but may differ in a detail not shown here. Identical values can stand only once.

Sequence of human FXa (P00742 235-488 limits assumed): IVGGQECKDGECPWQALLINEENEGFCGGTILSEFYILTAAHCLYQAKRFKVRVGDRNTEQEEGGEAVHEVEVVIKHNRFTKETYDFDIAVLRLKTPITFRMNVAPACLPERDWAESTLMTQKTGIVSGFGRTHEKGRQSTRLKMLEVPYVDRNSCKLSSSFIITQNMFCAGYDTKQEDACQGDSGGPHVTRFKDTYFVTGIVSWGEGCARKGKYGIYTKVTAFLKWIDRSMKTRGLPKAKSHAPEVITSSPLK
Sequence of human FXa (P00742 41-179 partner limits assumed): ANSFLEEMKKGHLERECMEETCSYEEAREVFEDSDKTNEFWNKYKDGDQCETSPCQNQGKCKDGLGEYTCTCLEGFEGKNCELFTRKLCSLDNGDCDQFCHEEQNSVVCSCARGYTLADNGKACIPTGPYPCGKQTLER
T2 sequence (P03951 388-625 limits assumed): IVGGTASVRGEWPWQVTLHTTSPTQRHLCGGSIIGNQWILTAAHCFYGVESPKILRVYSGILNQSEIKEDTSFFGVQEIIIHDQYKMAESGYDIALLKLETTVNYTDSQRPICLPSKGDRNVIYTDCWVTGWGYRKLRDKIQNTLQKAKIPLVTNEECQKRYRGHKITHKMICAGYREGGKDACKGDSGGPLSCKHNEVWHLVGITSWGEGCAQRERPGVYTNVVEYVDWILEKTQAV
T2 sequence (P03951 19-387 partner limits assumed): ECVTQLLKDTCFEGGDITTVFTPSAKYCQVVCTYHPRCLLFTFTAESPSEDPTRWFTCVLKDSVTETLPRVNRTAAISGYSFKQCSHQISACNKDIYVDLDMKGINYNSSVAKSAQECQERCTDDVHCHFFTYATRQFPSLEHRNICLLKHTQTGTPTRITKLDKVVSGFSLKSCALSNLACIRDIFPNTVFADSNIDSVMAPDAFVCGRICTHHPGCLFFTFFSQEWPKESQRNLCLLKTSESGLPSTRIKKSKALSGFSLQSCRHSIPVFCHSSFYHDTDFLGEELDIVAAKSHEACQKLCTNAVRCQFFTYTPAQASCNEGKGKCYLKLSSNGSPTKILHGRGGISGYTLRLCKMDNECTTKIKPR

In the case of `N=C(N)c1ccc(OCCCCCOc2ccc(C(=N)N)cc2)cc1` [pentamidine isethionate, 4,4′-(pentane-1,5-diylbis(oxy))-dibenzimidamide], in series [1], the HS stood at 0.97 ± 0.07; the IC50 is ~10 µM and 10.4 µM; the “∆Y (efficacy)” value came out at 101.6 ± 2.9%. Besides, in series [1] (listed as pentamidine), the “∆Y (efficacy)” value is listed as ~ 100%. Moreover, in series [2] (setting [7]), the “anemia, incidence” value is on record as 1%; the “leukopenia, incidence” value is listed as 10%; the “thrombocytopenia, incidence” value was 3%. For the same compound, in series [2] (treated patients), the “blood clot formation, share of treated patients” value is listed as “less than 1%”. The “inhibition of guinea pig transglutaminase” value in series [3] is “did not inhibit”. Besides, the highest concentration (Cmax) in series [4] is ≤ 1000 nM. Besides, the “PTEC2×, concentration to double clotting time” value in series [5] (PT assay, normal human plasma) is listed as 45.70 ± 0.85 µm. The “concentration to double the PT” value in series [5] was 45.7 µM and 45.70 ± 0.85 µM. The “concentration to double the PT” value in series [5] (listed as pentamidine) is “lower than 50 µM”. In addition, in series [6] (at 100 µM (highest concentration tested)), the inhibition at 100 µM was < 40%. For the same compound, the half-inhibitory concentration (IC50) in series [6] (pH 7.4) was > 100 µM.

Usually IC50 stands for the concentration at which inhibition is half-maximal. A word on the Cmax: it is the peak of the concentration-time curve. Broadly, the inhibition is how much of the control response was suppressed. A high value points to a response far below the control.
